# In US20230230249A1, “DIGITAL ANTIMICROBIAL SUSCEPTIBILITY TESTING” (ARIZONA BOARD OF REGENTS ON BEHALF OF ARIZONA STATE …, priority 2020, published 2023):
# System: E. coli ATCC 25922
# Assay: Digital AST by LVSi single-cell division tracking, pure E. coli samples
# Assay type: cell-based
# Details: for bacterial cell growth (normalized cumulative division events) versus control: different batches of E. coli; for average counting number of cell spots during 5-min video: 37° C., stationary phase cells
# Method: E. coli ATCC 25922 were purchased from American Type Culture Collection (ATCC) and stored at −80° C. in 5% glycerol. Antibiotics, including ciprofloxacin and ampicillin were purchased from Sigma-Aldrich. The antibiotic powders were stored in the dark at 2 to 8° C. Frozen E. coli strains were thawed, and 50 μL of the cells were cultured in 5 mL of Luria-Bertani (LB) medium (per liter: 10 g peptone 140, 5 g yeast extract, and 5 g sodium chloride) at 37° C. and 150 rpm for 15 h. Then the overnight cultured E. coli was inoculated into LB broth directly. After dilution to appropriate cell concentrations, antibiotics were added to the E. coli suspensions.
# The dual channel LVSi system depicted in FIG. 1A was used, with two 800 mW, 780 nm infrared (IR) LEDs (M780LP1, Thorlabs, Inc., USA), each with collimating and focusing lenses and a central blocking aperture to focus a ring-shaped illumination through the sample or the reference cuvettes. Wide-view and deep field depth scattering images were recorded by two CMOS cameras (BFS-U3-16S2M-CS, Point Grey Research Inc., Canada) at 10 fps through two 2×variable zoom lens (NAVITAR 12×, Navitar, USA), for the sample and reference cuvettes, respectively. The image volume was determined by the viewing size and focal depth of the optics. For these experiments, the viewing area of 2.5 mm×1.9 mm×1.0 mm was equivalent to 4.8 μL at 2.0× magnifying power. The imaging system was enclosed in a thermally isolated housing with a controlled temperature (37° C.).
# Individual cells recorded by LVSi are resolved as bright spots. Before division tracking, each spot was detected with a Laplacian of Gaussian (LoG) filter with defined radius and threshold. Then, the spots from adjacent time frames were connected with a Karman filter for directional linking. So each bright spot became a single-cell trajectory. To track the division events, the newly appeared cell trajectories (those from the image edges excluded) were first filtered out as the child trajectory candidates, and for each child trajectory candidate, the nearby old trajectories (appeared before the child trajectory candidate) were checked. If there was a close-by old trajectory split at the start time of the child trajectory candidate, a potential division event was tracked. To filter out the merge/crossing induced splitting, the spots merging events were also checked and were filtered out from the potential division events. Finally, an intensity filter was used to evaluate the remaining division events, ensuring the parent cell intensity is about the summation of the two divided child ones, and the two child ones are similar in size.
# To validate that the tracked division events were due to real cell growth, rather than an artifact of the particle merging or crossing, a division over-counting calibration test was designed. To rule out the real division events, the E. coli cells were heated at ˜65° C. for 15 min. Then, each 5-min video of the heated E. coli cells with different concentrations (2.0×10^4˜2.0×10^5 CFU/mL, corresponding to 100-1000 spots in image view) were analyzed for single-cell division tracking. Each concentration test was repeated three times. Then, the division over-counting calibration curve was extracted from the tracking results. The division over-counting is less an issue when the cell number is below 500, corresponding to the bacterial concentration of about 1.0×10^5 CFU/mL. When the cell number is above 500, some miss-counting of division events occurred. To rule out the cell density induced division over-counting, the final division events in all clinical samples were calibrated by subtracting the cell density associated over counted division events.
# The statistical error of the division tracking was estimated by the mentioned division over-counting calibration. […]
SMILES,"bacterial cell growth (normalized cumulative division events) versus control (16 μg/mL ampicillin, 60 min (FIG. 5C, 5D))","cumulative division events growth curve compared with control (2 μg/mL ciprofloxacin, 60 min (FIG. 4F))","bacterial cell growth (normalized cumulative division events) versus control (2 μg/mL ciprofloxacin, 60 min (FIG. 5A, 5B))","average counting number of cell spots during 5-min video (2 μg/mL ciprofloxacin, snapshot at 5 min)","average counting number of cell spots during 5-min video (2 μg/mL ciprofloxacin, snapshot at 30 min)","average counting number of cell spots during 5-min video (2 μg/mL ciprofloxacin, snapshot at 60 min)"
CC1(C)S[C@@H]2[C@H](NC(=O)[C@H](N)c3ccccc3)C(=O)N2[C@H]1C(=O)O [ampicillin],clear inhibition in bacterial cell growth,–,–,–,–,–
O=C(O)c1cn(C2CC2)c2cc(N3CCNCC3)c(F)cc2c1=O [ciprofloxacin],–,no obvious increases in the growth curve,clear inhibition in bacterial cell growth,118±8,114±5,106±4
